Experimental data as given in ChEMBL document CHEMBL3351429, “Phenyl substituted 4-hydroxypyridazin-3(2H)-ones and 5-hydroxypyrimidin-4(3H)-ones: inhibitors of influenza A endonuclease” (J Med Chem, 2014).

Experiment: Inhibition of influenza A virus H1N1 endonuclease (1 to 204 residues) expressed in Escherichia coli BL21 (RIL) using (6-FAM)-TGGCAATATCAGCTCCACA(MGBNFQ) single-stranded DNA probe by fluorimetry

| SMILES | IC50 [nM] |
| --- | --- |
| O=c1[nH]c(-c2ccc(F)cc2)ccc1O | 430 |
| N#Cc1ccc(-c2ncc(O)c(=O)[nH]2)cc1 | 520 |
| O=c1[nH]cc(-c2ccc(F)cc2)[nH]c1=O | 59000 |
| O=c1[nH]cc(-c2ccc(F)cc2)cc1O | 730 |
| O=c1[nH]ncc(-c2ccc(F)cc2)c1O | 177000 |
| O=c1[nH]c(-c2ccc(F)cc2)ncc1O | 580 |
| O=c1[nH]nc(-c2ccc(-c3nnn[nH]3)cc2)cc1O | 3000 |
| O=c1[nH]c(-c2cccc(F)c2)ncc1O | 1560 |
| O=c1[nH]nc(-c2ccc(F)cc2)cc1O | 6000 |
| O=c1[nH]c(-c2ccccc2-c2ccccc2)ncc1O | 1100 |
| O=c1[nH]cnc(-c2ccc(F)cc2)c1O | > 193000 |
| O=c1[nH]c(-c2cccc(-c3nnn[nH]3)c2)ncc1O | 480 |
| O=c1[nH]c(-c2cccc(-c3ccccc3)c2)ncc1O | 400 |
| O=c1[nH]c(-c2ccc(-c3nnn[nH]3)cc2)ncc1O | 150 |
| N#Cc1cccc(-c2ncc(O)c(=O)[nH]2)c1 | 250 |
| O=c1[nH]c(-c2ccccc2F)ncc1O | 1670 |
| O=c1[nH]c(-c2ccc(-c3ccccc3)cc2)ncc1O | 2240 |
| N#Cc1ccc(-c2cc(O)c(=O)[nH]n2)cc1 | 9300 |
